Experimental findings from ChEMBL document CHEMBL5500406, “Discovery of Novel Proteolysis-Targeting Chimera Molecules as Degraders of Programmed Cell Death-Ligand 1 for Breast Cancer Therapy” (J Med Chem, 2024) are described below.

Data set [1] is described as follows: Clearance in Sprague-Dawley rat at 3 mg/kg, iv measured for 24 hrs by LC-MS/MS analysis. Format: ADME, organism-based. Conditions: in vivo.
For data set [2], the system named is 4T1. The data set is described as follows: Antitumor activity against mouse 4T1 cells allografted in BALB/c mouse assessed as reduction in tumor weight at 30 to 60 mg/kg, ip qd for 15 days. Format: functional, organism-based. Conditions: dose 30-60 mg/kg, time 15.0 day.
The target in another data set is T1, Protein cereblon (Mus musculus, UniProt Q8C7D2).
T1 sequence (Q8C7D2 whole entry): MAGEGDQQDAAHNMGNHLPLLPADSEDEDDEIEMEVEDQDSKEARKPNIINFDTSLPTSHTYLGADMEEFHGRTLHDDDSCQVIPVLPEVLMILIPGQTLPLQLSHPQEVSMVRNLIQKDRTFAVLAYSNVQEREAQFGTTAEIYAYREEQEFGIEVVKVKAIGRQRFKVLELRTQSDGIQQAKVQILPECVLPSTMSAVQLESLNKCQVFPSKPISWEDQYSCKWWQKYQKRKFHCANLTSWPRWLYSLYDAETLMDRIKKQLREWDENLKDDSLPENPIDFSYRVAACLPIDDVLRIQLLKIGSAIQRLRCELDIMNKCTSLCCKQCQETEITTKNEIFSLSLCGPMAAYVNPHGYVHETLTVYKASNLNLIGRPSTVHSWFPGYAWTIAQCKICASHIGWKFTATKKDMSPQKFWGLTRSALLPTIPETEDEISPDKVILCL
The data set is described as follows: Binding affinity to mouse CRBN assessed as dissociation constant incubated for 15 mins by MST assay.

A short description of data set [3]: Toxicity in BALB/c mouse allografted with mouse 4T1 cells assessed as pathological change in kidney at 60 mg/kg, ip qd for 15 days in presence of Paclitaxel by H and E staining based analysis. It counts as organism-based. Conditions: in vivo, 360 h, time 15 day.
Data set [4] can be described thus: Toxicity in BALB/c mouse allografted with mouse 4T1 cells assessed as body weight loss at 60 mg/kg, ip qd for 15 days in presence of Paclitaxel. Format: organism-based. Conditions: in vivo, 360 h, time 15 day.
The nature of data set [5]: Cmax in Sprague-Dawley rat at 30 mg/kg, ip measured for 24 hrs by LC-MS/MS analysis. Conditions: in vivo. It counts as ADME, organism-based.
A short description of data set [6]: Toxicity in BALB/c mouse allografted with mouse 4T1 cells assessed as abnormality in biochemical analysis at 30 to 60 mg/kg, ip qd for 15 days. Format: organism-based. Conditions: in vivo, 360 h, dose 30-60 mg/kg, time 15 day.
Data set [7] has as its system 4T1. The data set is described as follows: Antitumor activity against mouse 4T1 cells allografted in BALB/c mouse assessed as increase in IFN-gamma mRNA level in tumor at 60 mg/kg, ip qd for 15 days by qRT-PCR analysis. It counts as functional, organism-based. Conditions: time 15.0 day. On the technique in general: In qPCR the cycle at which signal appears reflects the starting amount.

Data set [8] addresses T2, Protein cereblon/Programmed cell death 1 ligand 1 (Mus musculus) (UniProt Q9EP73+Q8C7D2). The data set is described as follows: PROTAC activity at CRBN/PD-L1 in mouse 4T1 cells assessed as protein degradation at 0.312 uM incubated for 24 hrs in presence of siCRBN by Western blot analysis. Format: cell-based.
The nature of data set [9]: Toxicity in BALB/c mouse allografted with mouse 4T1 cells assessed as pathological change in heart at 60 mg/kg, ip qd for 15 days in presence of Paclitaxel by H and E staining based analysis. Format: organism-based. Conditions: in vivo, 360 h, time 15 day.
Data set [10] has as its system 4T1. The data set is described as follows: Antitumor activity against mouse 4T1 cells allografted in BALB/c mouse assessed as increase in GzmB mRNA level in tumor at 60 mg/kg, ip qd for 15 days by qRT-PCR analysis. It counts as functional, organism-based. Conditions: time 15.0 day.
The test system of data set [11] is 4T1. The data set is described as follows: Antitumor activity against mouse 4T1 cells assessed as decrease in cell viability at 0.078 to 0.312 uM incubated for 24 hrs by LDH assay. Format: functional, cell-based. Conditions: dose 0.078-0.312 µM.
Data set [12] deals with 4T1. In words: Antitumor activity against mouse 4T1 cells allografted in BALB/c mouse at 60 mg/kg, ip qd for 15 days in presence of Paclitaxel relative to control. It counts as functional. Conditions: 4T1, 360 h, time 15 day, read-out: TGI.
Data set [13] addresses T2, Protein cereblon/Programmed cell death 1 ligand 1 (Mus musculus). In words: PROTAC activity at CRBN/PD-L1 in mouse 4T1 cells assessed as reduction in green fluorescence in cytoplasm at 0.312 uM incubated for 24 hrs by immunofluorescence analysis. It counts as subcellular.
The target is the same in data set [14]. In words: PROTAC activity at CRBN/PD-L1 in mouse 4T1 cells assessed as protein degradation at 0.078 to 10 uM measured for 48 hrs by Western blot analysis. It counts as cell-based. Conditions: dose 0.078-10 µM.
Data set [15] concerns the target Protein cereblon/Programmed cell death 1 ligand 1 (Homo sapiens) (UniProt Q9NZQ7+Q96SW2). The data set is described as follows: PROTAC activity at CRBN/PD-L1 in human NCI-H2228 cells assessed as protein degradation at >=5 uM measured for 24 hrs by Western blot analysis. Format: cell-based. For orientation: A western blot detects proteins with antibodies after separation by electrophoresis.

Data set [16] in a line: Toxicity in BALB/c mouse allografted with mouse 4T1 cells assessed as pathological change in spleen at 60 mg/kg, ip qd for 15 days in presence of Paclitaxel by H and E staining based analysis. It counts as organism-based. Conditions: in vivo, 360 h, time 15 day.
A short description of data set [17]: Toxicity in BALB/c mouse allografted with mouse 4T1 cells assessed as pathological change in kidney at 30 to 60 mg/kg, ip qd for 15 days by H and E staining based analysis. It counts as organism-based. Conditions: in vivo, 360 h, dose 30-60 mg/kg, time 15 day.
A short description of data set [18]: Volume of distribution at steady state in Sprague-Dawley rat at 3 mg/kg, iv measured for 24 hrs by LC-MS/MS analysis. Format: ADME, organism-based. Conditions: in vivo, read-out: Vdss.
Data set [19] relates to 4T1. In words: Antitumor activity against mouse 4T1 cells assessed as inhibition of cell viability incubated for 48 hrs by MTT assay. Format: functional, cell-based. Conditions: 4T1, 48 h. (In general: Formazan colour is commonly taken as a measure of viable cells.)
Data set [20] deals with 4T1. In words: Antitumor activity against mouse 4T1 cells allografted in BALB/c mouse assessed as reduction in tumor weight at 60 mg/kg, ip qd for 15 days in presence of Paclitaxel. Format: functional, organism-based. Conditions: time 15.0 day.

Calls of active or inactive are those of the source. The rule behind the calls is not given here.

T2 sequence (Q9EP73 19-290 limits assumed, one chain of several): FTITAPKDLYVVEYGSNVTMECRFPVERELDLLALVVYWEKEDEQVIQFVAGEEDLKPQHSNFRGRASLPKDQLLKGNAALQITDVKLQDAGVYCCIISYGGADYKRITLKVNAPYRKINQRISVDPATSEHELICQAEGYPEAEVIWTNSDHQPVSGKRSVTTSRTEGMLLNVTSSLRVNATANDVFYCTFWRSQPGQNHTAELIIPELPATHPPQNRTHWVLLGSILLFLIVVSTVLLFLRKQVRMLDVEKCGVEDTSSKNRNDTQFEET
Chain of Protein cereblon/Programmed cell death 1 ligand 1 (Homo sapiens) (Q96SW2 whole entry, looked up): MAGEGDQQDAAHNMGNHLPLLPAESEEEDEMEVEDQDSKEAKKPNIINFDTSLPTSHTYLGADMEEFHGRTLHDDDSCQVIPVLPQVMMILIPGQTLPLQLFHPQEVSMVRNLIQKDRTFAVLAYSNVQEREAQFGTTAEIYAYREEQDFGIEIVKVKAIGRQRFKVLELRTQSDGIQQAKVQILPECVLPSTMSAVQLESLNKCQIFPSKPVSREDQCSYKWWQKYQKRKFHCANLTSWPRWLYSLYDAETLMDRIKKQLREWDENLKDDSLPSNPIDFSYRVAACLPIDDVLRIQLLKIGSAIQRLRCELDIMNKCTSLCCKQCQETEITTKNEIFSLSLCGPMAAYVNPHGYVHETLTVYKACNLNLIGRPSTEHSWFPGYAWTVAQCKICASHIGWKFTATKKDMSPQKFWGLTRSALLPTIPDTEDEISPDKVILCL
Chain of Protein cereblon/Programmed cell death 1 ligand 1 (Homo sapiens) (Q9NZQ7 whole entry, looked up): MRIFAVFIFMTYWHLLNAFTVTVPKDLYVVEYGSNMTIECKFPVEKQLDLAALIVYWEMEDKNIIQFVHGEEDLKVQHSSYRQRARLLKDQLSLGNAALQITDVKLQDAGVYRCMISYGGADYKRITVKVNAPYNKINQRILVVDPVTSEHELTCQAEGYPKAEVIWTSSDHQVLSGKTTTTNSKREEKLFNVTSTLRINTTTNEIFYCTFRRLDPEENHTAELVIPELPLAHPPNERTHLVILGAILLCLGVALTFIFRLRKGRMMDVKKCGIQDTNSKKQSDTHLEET

One may read the clearance as the rate of elimination divided by the concentration. High values mean a high capacity for elimination, low ones a low capacity for elimination. By Kd is commonly meant the free concentration of one partner at which half of the binding sites on the other are occupied at equilibrium, for simple one-to-one binding. One may read the Cmax as the highest concentration seen after dosing. Broadly, the IC50 is the concentration at which inhibition is half-maximal. `COc1nc(OCc2cccc(-c3ccccc3)c2C)ccc1CNCCNC(=O)CCCCCCCCNC(=O)COc1ccc(C2CCC(=O)NC2=O)cc1` (stereo unspecified) gave a clearance in [1] of 471 mL/min/kg. In addition, the outcome (with 4T1 [2]; in the data set on 4T1 [7]; with 4T1 [10]; in the data set with 4T1 [11]; in [13]; in data set [14]) was Active. For the same compound, the outcome (in data set [15]; with 4T1 [20]) was Active. In addition, on Protein cereblon, the Kd amounted to 132 µM. The Activity result in data set [3], in [4], in data set [6], in data set [9], in data set [16] and in data set [17] was “Non-Toxic” in each case. In [5], this compound came in with a Cmax of 217 ng/mL. The result in [8] was inactive. The inhibition in vivo at 60 mg/kg with 4T1 [12] worked out at 86.7%. For the same compound, the Vd in [18] is 23 L/kg. The IC50 in the data set on 4T1 [19] amounted to 23.1 µM.
